Like-named read-outs stand apart in the source and are kept apart here.
Assays:
Type in all cases: cell-based
[1] = system: HepG2 (human liver cancer); test: SRB cytotoxicity assay, HepG2; settings: 72 h
[2] = system: PC-3 (human prostate cancer); test: SRB cytotoxicity assay, PC-3; settings: 72 h
[3] = system: HeLa (human cervix cancer); test: SRB cytotoxicity assay, HeLa; settings: 72 h, mean ± SD
[4] = system: HEp-2 (human larynx epidermal cancer); test: SRB cytotoxicity assay, HEp-2; settings: 72 h, mean ± SD
Source text: All the synthesized derivatives of 1 and 2 were screened for their anticancer activities against four human cancer cell lines (HeLa, PC-3, HEp-2 and HepG2) and two normal cell lines (CHO and HUVEC) using the sulforhodamine B (SRB) assay.
PC-3 (human prostate cancer), HepG2 (human liver cancer) and CHO (Chinese hamster ovary) cell lines were obtained from Shanghai Institute of Biochemistry and Cell Biology, Chinese Academy of Sciences. HeLa (human cervix cancer), HUVEC (human umbilical vein endothelial cells) and HEp-2 (human laryngeal cancer) cell lines were granted by Prof. Lei of college of life sciences, Northwest A&F University. The six cell lines were grown in RPMI-1640 (Gibco) containing 10% (v/v) thermally inactivated fetal bovine serum (FBS), penicillin (100 KU/L) and streptomycin (100 KU/L) at 37 °C in a 5% CO2 humidified incubator.
In vitro cytotoxicity was assessed by using the SRB colorimetric assay refer to previous methods[19],[42].

[5] = mean ± SD, read-out: IC50 HepG2
[6] = read-out: IC50 HepG2 (Table 3, C13-methylene modified derivatives)
[7] = read-out: IC50 PC-3 (Table 3, C13-methylene modified derivatives)

## C=C1C(=O)O[C@@H]2C[C@]3(C)C(=C[C@H]12)[C@@H](C)CC[C@H]3OC(=O)c1ccccc1 [1b, 1β-benzoyl alantolactone]
[1]; [5]
  IC50: > 40 µM
[2]; mean ± SD, read-out: IC50 PC-3
  IC50: > 40 µM
[3]
  IC50: 25.5 ± 3.2 µM
[4]
  IC50: > 40 µM

## C=C1C(=O)O[C@@H]2C[C@]3(C)C(=C[C@H]12)[C@@H](C)CC[C@H]3OC(=O)c1ccc(F)cc1 [1c, 1β-(4-fluorobenzoyl) alantolactone]
[1]; [5]
  IC50: > 40 µM
[2]; mean ± SD, read-out: IC50 PC-3
  IC50: > 40 µM
[3]
  IC50: > 40 µM
[4]
  IC50: > 40 µM

## C=C1C(=O)O[C@@H]2C[C@]3(C)C(=C[C@H]12)[C@@H](C)CC[C@H]3OC(=O)c1ccc([N+](=O)[O-])cc1 [1d]
[1]; [5]
  IC50: 23.5 ± 3.6 µM
[2]; mean ± SD, read-out: IC50 PC-3
  IC50: > 40 µM
[3]
  IC50: > 40 µM
[4]
  IC50: > 40 µM

## C=C1C(=O)O[C@@H]2C[C@]3(C)C(=C[C@H]12)[C@@H](C)CC[C@H]3OC(=O)c1ccc(OC)cc1 [1e]
[1]; [5]
  IC50: 34.1 ± 4.8 µM
[2]; mean ± SD, read-out: IC50 PC-3
  IC50: > 40 µM
[3]
  IC50: > 40 µM
[4]
  IC50: > 40 µM

## C=C1C(=O)O[C@@H]2C[C@]3(C)C(=C[C@H]12)[C@@H](C)CC[C@H]3OC(=O)/C=C/c1ccc(Br)cc1 [1f, 1β-(4-bromocinnamoyl) alantolactone]
[1]; [5]
  IC50: 12.5 ± 2.2 µM
[2]; mean ± SD, read-out: IC50 PC-3
  IC50: 18.7 ± 5.2 µM
[3]
  IC50: > 40 µM
[4]
  IC50: > 40 µM

## C=C1C(=O)O[C@@H]2C[C@]3(C)C(=C[C@H]12)[C@@H](C)CC[C@H]3OC(=O)/C=C/c1ccc(C(F)(F)F)cc1 [1g, 1β-(4-trifluoromethyl) alantolactone]
[1]; [5]
  IC50: 15.2 ± 3.8 µM
[2]; mean ± SD, read-out: IC50 PC-3
  IC50: 11.8 ± 2.8 µM
[3]
  IC50: 10 ± 2.1 µM
[4]
  IC50: > 40 µM

## CC1CCC(OC(=O)c2ccccc2)C2(C)CC3OC(=O)C4(CCC(=O)O4)C3C=C12 (stereo not drawn) [1j, 1β-benzoyl alanto-spirobislactone]
[1]; [6]
  IC50: > 40 µM
[2]; [7]
  IC50: > 40 µM

## Cc1ccc(C2=NO[C@]3(C2)C(=O)O[C@@H]2C[C@@]4(C)C(=O)CC[C@H](C)C4=C[C@@H]23)cc1 [1k, (11 S)-16-(p-methylphenyl)-spiroisoxazoline-1-carbonyl-alantolactone]
[1]; [6]
  IC50: > 40 µM
[2]; [7]
  IC50: > 40 µM

## C[C@H]1CCC(=O)[C@]2(C)C[C@H]3OC(=O)[C@]4(CC(c5ccc([N+](=O)[O-])cc5)=NO4)[C@H]3C=C12 [1l, (11 S)-16-(p-nitrophenyl)-spiroisoxazoline-1-carbonyl-alantolactone]
[1]; [6]
  IC50: > 40 µM
[2]; [7]
  IC50: > 40 µM

## C[C@H]1CCC(=O)[C@]2(C)C[C@H]3OC(=O)[C@]4(CC(c5ccccc5[N+](=O)[O-])=NO4)[C@H]3C=C12 [1m, (11 S)-16-(o-nitrophenyl)-spiroisoxazoline-1-carbonyl-alantolactone]
[1]; [6]
  IC50: > 40 µM
[2]; [7]
  IC50: > 40 µM

## C[C@H]1CCC(=O)[C@]2(C)C[C@H]3OC(=O)[C@]4(CC(c5ccc(Cl)cc5)=NO4)[C@H]3C=C12 [1n, (11 S)-16-(p-chlorophenyl)-spiroisoxazoline-1-carbonyl-alantolactone]
[1]; [6]
  IC50: > 40 µM
[2]; [7]
  IC50: > 40 µM

## COc1ccc(C2=NO[C@]3(C2)C(=O)O[C@@H]2C[C@@]4(C)C(=O)CC[C@H](C)C4=C[C@@H]23)cc1 [1o, (11 S)-16-(p-methoxyphenyl)-spiroisoxazoline-1-carbonyl-alantolactone]
[1]; [6]
  IC50: > 40 µM
[2]; [7]
  IC50: > 40 µM

## COc1ccc(Cl)cc1C1=NO[C@]2(C1)C(=O)O[C@@H]1C[C@@]3(C)C(=O)CC[C@H](C)C3=C[C@@H]12 [1p, (11 S)-16-(5-chloro-2-methoxylphenyl)-spiroisoxazoline-1-carbonyl-alantolactone]
[1]; [6]
  IC50: > 40 µM
[2]; [7]
  IC50: > 40 µM

## COc1cc(C2=NO[C@]3(C2)C(=O)O[C@@H]2C[C@@]4(C)C(=O)CC[C@H](C)C4=C[C@@H]23)c(Cl)c(OC)c1OC [1q, (11 S)-16-(2-chloro-3,4,5-trimethoxylphenyl)-spiroisoxazoline-1-carbonyl-alantolactone]
[1]; [6]
  IC50: > 40 µM
[2]; [7]
  IC50: > 40 µM

## C=C1C(=O)O[C@@H]2C[C@]3(C)C(=C(C)CC[C@H]3OC(C)=O)C[C@H]12 [2a, 1β-ethanoyl ivangustin]
[1]; [5]
  IC50: > 40 µM
[2]; mean ± SD, read-out: IC50 PC-3
  IC50: 28.9 ± 4.5 µM
[3]
  IC50: 32.3 ± 2 µM
[4]
  IC50: > 40 µM
